# Patent publication US7462733B2, “Preparation and use of α-keto phosphonates” (University of Southern California, priority 2001, dated 2008)
# Experiment: pH dependence of ketone-hydrate equilibrium (31P NMR, absorbance 420 nm)
# Format: physicochemical
# Source text: The ketone 13a and hydrate forms 13b are simultaneously detectable by ^31P, and also via the visible absorbance (420 nm) of the ketone chromophore (yellow). At low pH, the hydrate form 13b predominates, the phosphorus NMR peak shifting from −2 to 15 ppm. The reaction is reversible, the ketone reforming as the pH is increased. The pH at which 50% of the ketone is transferred to its hydrate form (‘pK’) is 2.2 (rt, 10^−7M in D2O). This unequivocally coincides with the protonation of the phosphonate function. Upon addition of MgCl2, the apparent ‘pK’ of the equilibrium shifts by nearly 2 pH units towards left to reach 4.2 (FIG. 4).
# We, report here synthesis and characterization of the first example of a new class of nucleotide analog, in which the α,β-phosphoric anhydride oxygen of the 5′-diphosphate moiety is replaced by a reactive carbonyl group: the carbonylbisphosphonate analog of 3′-azido-3′desoxythymidine 5′-diphosphate, 13. The structures of 13 and its diazomethylenebisphosphonate precursor 12 were confirmed by ^1H, ^13C and ^31P NMR, and high-resolution mass spectrometry. The ketone and hydrate forms of 13 are simultaneously detectable by ^31P, and also via the visible absorbance (420 nm) of the ketone chromophore. At low pH, the hydrate form predominates, the phosphorus NMR peak shifting from −2 to 15 ppm. The reaction is reversible, the ketone reforming as the pH is increased. Addition of Mg^2+ shifts the ‘pK’ of the equilibrium by nearly 2 pH units. (See FIG. 4).
compound,measurement,setting,value
"Cc1cn([C@H]2C[C@H](N=[N+]=[N-])[C@@H](COP(=O)(O)C(=O)P(=O)(O)O)O2)c(=O)[nH]c1=O [Compound 13a, 3′-Azido-3′-Deoxythymidine 5′-Carbonylbisphosphonate]",shift of the 'pK' of the equilibrium on addition of Mg2+,addition of MgCl2 / Mg^2+,~2 pH units
same,pH at which 50% of the ketone is transferred to its hydrate form ('pK'),"rt, 10^−7M in D2O, no Mg",2.2
same,apparent 'pK' of the ketone-hydrate equilibrium,upon addition of MgCl2,4.2
